One may read the IC50 as the point on the concentration scale where inhibition reaches its midpoint.

The test addresses T1, IKKε (Homo sapiens, UniProt Q14164).
T1 construct: His-tag; made in house; host or cells: Sf9 insect cells
T1 sequence (Q14164 1-716): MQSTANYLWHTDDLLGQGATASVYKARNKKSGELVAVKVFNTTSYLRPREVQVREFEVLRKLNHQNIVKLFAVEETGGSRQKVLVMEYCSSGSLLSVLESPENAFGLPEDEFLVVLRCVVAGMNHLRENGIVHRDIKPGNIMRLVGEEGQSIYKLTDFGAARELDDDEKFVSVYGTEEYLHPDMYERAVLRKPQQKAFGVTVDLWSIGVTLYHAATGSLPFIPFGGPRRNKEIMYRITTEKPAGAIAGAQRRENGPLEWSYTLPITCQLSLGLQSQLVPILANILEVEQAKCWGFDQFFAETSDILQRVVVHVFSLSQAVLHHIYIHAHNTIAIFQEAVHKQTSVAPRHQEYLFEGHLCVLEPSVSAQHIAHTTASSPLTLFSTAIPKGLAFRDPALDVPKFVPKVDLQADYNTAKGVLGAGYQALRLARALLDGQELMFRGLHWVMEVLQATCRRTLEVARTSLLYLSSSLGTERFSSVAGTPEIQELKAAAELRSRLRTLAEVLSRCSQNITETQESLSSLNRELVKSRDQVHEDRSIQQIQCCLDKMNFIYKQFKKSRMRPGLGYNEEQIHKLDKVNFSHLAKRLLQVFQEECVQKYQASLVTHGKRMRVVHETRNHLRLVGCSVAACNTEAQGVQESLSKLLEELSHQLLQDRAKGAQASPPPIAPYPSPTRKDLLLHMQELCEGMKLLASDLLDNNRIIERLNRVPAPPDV
Nature of the test: In-vitro IKKε kinase assay ([γ33]ATP filter-plate). Type of test: biochemical. Particulars: text bins; read-out: IC50 for inhibition of the kinase activity of IKKε. The method in brief: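 His-tagged Sf9-expressed kinases at 0.1 or 0.02 μg/ml (TBK1) and 0.1 or 0.015 μg/ml (IKKε) for normal and sensitized formats, with myelin basic protein or casein substrate. ATP was at 2×Km (60 μM TBK1, 32 μM IKKε) plus 0.3 μCi [γ33]ATP. Reactions ran 30-45 min, were captured on P-81 filters, and counts were normalized to DMSO.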

As for `N#Cc1cc(-c2ccnc(Nc3cccc(-c4cccnc4)c3)n2)ccc1OC1CCOCC1` [compound 549, 5-(2-{[3-(Pyridin-3-yl)phenyl]amino}pyrimidin-4-yl)-2-(tetrahydro-2H-pyran-4-yloxy)benzonitrile], the concentration for half-maximal inhibition (IC50) was less than 0.005 µM.

In the case of `COc1ccc(-c2ccnc(Nc3cccc(S(=O)(=O)NCCO)c3)n2)cc1C#N` [compound 309, 3-{[4-(3-Cyano-4-methoxyphenyl)pyrimidin-2-yl]amino}-N-(2-hydroxyethyl) benzenesulfonamide], the IC50 is 0.05 to 0.5 µM.

Consider `C[C@H](O)C(=O)N1CC(Oc2ccc(-c3ccnc(Nc4ccc(N5CCOCC5)cc4)n3)cc2C#N)C1` [Example 249, 2-({1-[(2S)-2-hydroxypropanoyl]azetidin-3-yl}oxy)-5-(2-{[4-(morpholin-4-yl)phenyl]amino}pyrimidin-4-yl)benzonitrile], for which the IC50 fell in the range of 0.05 to 0.5 µM.

As to `CN(C)CC(=O)N1CCC(Oc2ccc(-c3ccnc(Nc4ccc(N5CCOCC5)cc4)n3)cc2C#N)CC1` [Example 160, 2-{[1-(N,N-dimethylglycyl)piperidin-4-yl]oxy}-5-(2-{[4-(morpholin-4-yl)phenyl]amino}pyrimidin-4-yl)benzonitrile], the IC50 fell in the range of 0.05 to 0.5 µM.

Consider `CC(C)(O)CNC(=O)Nc1cccc(Nc2nccc(-c3ccc(OC4CCOCC4)c(C#N)c3)n2)c1` [compound 649, 1-[3-({4-[3-Cyano-4-(tetrahydro-2H-pyran-4-yloxy)phenyl]pyrimidin-2-yl}amino)phenyl]-3-(2-hydroxy-2-methylpropyl)urea], for which the IC50 is less than 0.005 µM.

Regarding `COc1ccc(Nc2nccc(-c3cccc(C#N)c3)n2)cc1` [compound 319, 3-{2-[(4-Methoxyphenyl)amino]pyrimidin-4-yl}benzonitrile], the 50% inhibitory concentration (IC50) was 0.05 to 0.5 µM.

As for `CC(C)(COc1ccc(-c2ccnc(Nc3ccc(N4CCOCC4)cc3)n2)cc1C#N)C(=O)N1CCOCC1` [compound 459, 2-[2,2-dimethyl-3-(morpholin-4-yl)-3-oxopropoxy]-5-(2-{[4-(morpholin-4-yl)phenyl]amino}pyrimidin-4-yl)benzonitrile], the half-inhibitory concentration (IC50) lay in the range of 0.05 to 0.5 µM.

As to `COc1ccc(-c2ccnc(Nc3ccc(NC(=O)NCCO)cc3)n2)cc1C#N` [Example 9, 1-(4-{[4-(3-Cyano-4-methoxyphenyl)pyrimidin-2-yl]amino}phenyl)-3-(2-hydroxyethyl)urea], the IC50 was 0.05 to 0.5 µM.

`N#Cc1cc(-c2ccnc(Nc3ccc(N4CCOCC4)cc3)n2)ccc1SC1CCCCC1` [Example 137, 2-(cyclohexylsulfanyl)-5-(2-{[4-(morpholin-4-yl)phenyl]amino}pyrimidin-4-yl)benzonitrile]: the IC50 lay within 0.05 to 0.5 µM.

For `COc1cc(Nc2nccc(-c3ccc(OCC(C)C)c(C#N)c3)n2)ccc1C(=O)N1CC(OC)C1` [compound 587, 5-[2-({3-Methoxy-4-[(3-methoxyazetidin-1-yl)carbonyl]phenyl}amino)pyrimidin-4-yl]-2-(2-methylpropoxy) benzonitrile], the IC50 is less than 0.005 µM.

In the case of `N#Cc1cc(-c2ccnc(Nc3ccc(N4CCOCC4)cc3)n2)ccc1O[C@H]1CCN(C(=O)CO)C1` [compound 623, 2-{[(3S)-1-(Hydroxyacetyl)pyrrolidin-3-yl]oxy}-5-(2-{[4-(morpholin-4-yl)phenyl]amino}pyrimidin-4-yl)benzonitrile], the IC50 lay within 0.005 to 0.05 µM.

Consider `N#Cc1cc(-c2ccnc(Nc3ccc(CN4CC(O)C4)cc3)n2)ccc1O[C@@H]1CCN(C(=O)CO)C1` [compound 615, 2-{[(3R)-1-(Hydroxyacetyl)pyrrolidin-3-yl]oxy}-5-[2-({4-[(3-hydroxyazetidin-1-yl)methyl]phenyl}amino)pyrimidin-4-yl]benzonitrile], for which the 50% inhibitory concentration (IC50) was less than 0.005 µM.

As for `CC(C)C(=O)Nc1ccc(-c2ccnc(Nc3cccc(OCCCN4CCOCC4)c3)n2)cc1C#N` [compound 429, N-{2-cyano-4-[2-({3-[3-(morpholin-4-yl)propoxy]phenyl}amino)pyrimidin-4-yl]phenyl}-2-methylpropanamide], the IC50 lay in the range of 0.005 to 0.05 µM.

In the case of `COc1cc(NC(=O)c2ccncc2)cc(Nc2nccc(-c3ccc(OC)c(C#N)c3)n2)c1` [compound 357], the half-maximal inhibitory concentration (IC50) lay in the range of 0.05 to 0.5 µM.

In the case of `COc1cc(NC(=O)NC2CCN(C)CC2)cc(Nc2nccc(-c3ccc(OC)c(C#N)c3)n2)c1` [compound 388], the IC50 lay in the range of 0.05 to 0.5 µM.

`CC(=O)Nc1cccc(Nc2nccc(-c3ccc(OCc4ccccc4)c(C#N)c3)n2)c1` [Example 185, N-[3-({4-[4-(Benzyloxy)-3-cyanophenyl]pyrimidin-2-yl}amino)phenyl] acetamide]: the IC50 was 0.005 to 0.05 µM.

On to `COc1ccc(-c2ccnc(Nc3ccc(N4CCCC4C(=O)N(C)C)c(OC)c3)n2)cc1C#N` (stereo not shown) [Example 87], for which the IC50 is 0.005 to 0.05 µM.

In the case of `COc1ccc(-c2ccnc(Nc3ccc(S(=O)(=O)N4CCN(C)CC4)cc3)n2)cc1C#N` [compound 308, 2-Methoxy-5-[2-({4-[(4-methylpiperazin-1-yl)sulfonyl]phenyl}amino)pyrimidin-4-yl]benzonitrile], the half-inhibitory concentration (IC50) is 0.05 to 0.5 µM.

As for `N#Cc1cc(-c2ccnc(Nc3ccc(N4CCOCC4)cc3)n2)ccc1OCCNC(=O)CO` [Example 197, N-{2-[2-cyano-4-(2-{[4-(morpholin-4-yl)phenyl]amino}pyrimidin-4-yl)phenoxy]ethyl}-2-hydroxyacetamide], the 50% inhibitory concentration (IC50) lay within 0.005 to 0.05 µM.

In the case of `N#Cc1cc(-c2ccnc(Nc3cccc(N4CCN(CCO)CC4)c3)n2)ccc1O[C@@H]1CCN(C(=O)CO)C1` [compound 604, 2-{[(3R)-1-(Hydroxyacetyl)pyrrolidin-3-yl]oxy}-5-[2-({3-[4-(2-hydroxyethyl)piperazin-1-yl]phenyl}amino)pyrimidin-4-yl]benzonitrile], the half-inhibitory concentration (IC50) was less than 0.005 µM.

In the case of `CN(C)CCOc1ccc(-c2ccnc(Nc3ccc(N4CCOCC4)cc3)n2)cc1C#N` [Example 58, 2-[2-(Dimethylamino)ethoxy]-5-(2-{[4-(morpholin-4-yl)phenyl]amino}pyrimidin-4-yl)benzonitrile], the IC50 lay in the range of 0.005 to 0.05 µM.

Consider `COc1cc(NC(C)=O)cc(Nc2nccc(-c3ccc(OC)c(C#N)c3)n2)c1` [Example 279, N-(3-{[4-(3-Cyano-4-methoxyphenyl)pyrimidin-2-yl]amino}-5-methoxyphenyl) acetamide], for which the concentration for half-maximal inhibition (IC50) was 0.005 to 0.05 µM.

On to `CC(C)C(=O)Nc1ccc(-c2ccnc(Nc3ccc(CCNCCO)cc3)n2)cc1C#N` [compound 455, N-(2-cyano-4-{2-[(4-{2-[(2-hydroxyethyl)amino]ethyl}phenyl)amino]pyrimidin-4-yl}phenyl)-2-methylpropanamide], for which the 50% inhibitory concentration (IC50) lay within 0.005 to 0.05 µM.

`N#Cc1cc(-c2ccnc(Nc3cccc(Cn4ccnn4)c3)n2)ccc1OC1CCOCC1` [compound 576, 2-(Tetrahydro-2H-pyran-4-yloxy)-5-(2-{[3-(1H-1,2,3-triazol-1-ylmethyl)phenyl]amino}pyrimidin-4-yl)benzonitrile]: the 50% inhibitory concentration (IC50) is less than 0.005 µM.

On to `N#Cc1cc(-c2ccnc(Nc3ccc(F)c(F)c3)n2)ccc1O[C@@H]1CCN(C(=O)CO)C1` [compound 582, 5-{2-[(3,4-Difluorophenyl)amino]pyrimidin-4-yl}-2-{[(3R)-1-(hydroxyacetyl)pyrrolidin-3-yl]oxy}benzonitrile], for which the IC50 lay in the range of 0.005 to 0.05 µM.

On to `CC(=O)N1CCCC(COc2ccc(-c3ccnc(Nc4ccc(N5CCOCC5)cc4)n3)cc2C#N)C1` (stereo not shown) [Example 161], for which the IC50 fell in the range of 0.005 to 0.05 µM.

With `N#Cc1cc(-c2ccnc(Nc3ccc(N4CCOCC4)cc3)n2)ccc1NC(=O)N1CCOCC1` [Example 52, N-[2-cyano-4-(2-{[4-(morpholin-4-yl)phenyl]amino}pyrimidin-4-yl)phenyl]morpholin-4-carboxamide], the IC50 lay within 0.05 to 0.5 µM.

Turning to `CC(=O)N1CC(COc2ccc(-c3ccnc(Nc4ccc(N5CCOCC5)cc4)n3)cc2C#N)C1` [Example 125, 2-[(1-acetylazetidin-3-yl)methoxy]-5-(2-{[4-(morpholin-4-yl)phenyl]amino}pyrimidin-4-yl)benzonitrile], the IC50 is 0.05 to 0.5 µM.

For `N#Cc1cc(-c2ccnc(Nc3cccc(F)c3)n2)ccc1O[C@@H]1CCN(C(=O)CO)C1` [compound 641, 5-{2-[(3-Fluorophenyl)amino]pyrimidin-4-yl}-2-{[(3R)-1-(hydroxyacetyl)pyrrolidin-3-yl]oxy}benzonitrile], the IC50 was 0.005 to 0.05 µM.

As to `CO[C@@H](C)C(=O)N1CCC(Oc2ccc(-c3ccnc(Nc4ccc(N5CCOCC5)cc4)n3)cc2C#N)CC1` [Example 99], the IC50 is 0.005 to 0.05 µM.

Take `N#Cc1cc(-c2ccnc(Nc3ccc(N4CCOCC4)cc3)n2)ccc1OCC1CN(C(=O)CO)C1` [Example 188, 2-{[1-(hydroxyacetyl)azetidin-3-yl]methoxy}-5-(2-{[4-(morpholin-4-yl)phenyl]amino}pyrimidin-4-yl)benzonitrile]: the IC50 fell in the range of 0.005 to 0.05 µM.

Values taken from patent US20150352108A1, “AMINO-PYRIMIDINE COMPOUNDS AS INHIBITORS OF TBK1 AND/OR IKK EPSILON” (Alzheimer's Institute of America, priority 2009, published 2015).
